Calls of active or inactive are those of the source. No cut-off for these calls is given here.
What was measured:
[1] = system: Anthrax toxin receptor 2 (Homo sapiens), P58335 [R40C]; experiment: (§1) Inhibition of AF546-tagged CMG2 R40C mutant binding to AF488-tagged PA E733C mutant incubated for 1 to 3 hrs prior to AF488-tagged PA E733C addition measured after 3 to 4 hrs by FRET assay
[2] = Antiangiogenic activity against human HMVEC at 52 uM after 4 hrs by Diff-Quick staining relative to control; assay type: functional
[3] = Antiangiogenic activity against human HMVEC at 156 uM after 4 hrs by Diff-Quick staining relative to control; assay type: functional
[4] = Antiproliferative activity against human HMVEC at 52 uM after 24 to 72 hrs by Cyquant-based fluorimetry relative to control
[5] = Antiproliferative activity against human HMVEC at 156 uM after 24 to 72 hrs by Cyquant-based fluorimetry relative to control
[6] = target: Anthrax toxin receptor 2 (Homo sapiens, UniProt P58335, R40C); experiment: as §1
Anthrax toxin receptor 2, sequence (P58335 whole entry R40C): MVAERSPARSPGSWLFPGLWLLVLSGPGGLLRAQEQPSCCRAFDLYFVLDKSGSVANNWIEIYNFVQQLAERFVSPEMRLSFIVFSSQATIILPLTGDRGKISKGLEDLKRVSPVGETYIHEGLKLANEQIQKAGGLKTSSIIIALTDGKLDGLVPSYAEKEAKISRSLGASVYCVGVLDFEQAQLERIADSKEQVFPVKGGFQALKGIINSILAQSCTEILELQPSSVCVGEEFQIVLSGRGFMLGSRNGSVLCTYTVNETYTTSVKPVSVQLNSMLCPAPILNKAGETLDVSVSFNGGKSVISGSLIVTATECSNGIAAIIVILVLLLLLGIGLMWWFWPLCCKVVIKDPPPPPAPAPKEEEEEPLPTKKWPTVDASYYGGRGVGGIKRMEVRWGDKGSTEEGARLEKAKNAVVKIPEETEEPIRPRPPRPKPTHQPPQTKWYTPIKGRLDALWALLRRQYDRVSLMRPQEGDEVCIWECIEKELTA

[7] = system: HMVEC; experiment: Antiangiogenic activity against human HMVEC at 39 uM after 4 hrs by Diff-Quick staining relative to control; assay type: functional
[8] = system: HMVEC; experiment: Antiangiogenic activity against human HMVEC at 117 uM after 4 hrs by Diff-Quick staining relative to control; assay type: functional
[9] = Antiproliferative activity against human HMVEC at 39 uM after 24 to 72 hrs by Cyquant-based fluorimetry relative to control
[10] = Antiproliferative activity against human HMVEC at 117 uM after 24 to 72 hrs by Cyquant-based fluorimetry relative to control

Anthrax toxin receptor 2 (Homo sapiens), P58335 [R40C], sequence (P58335 whole entry R40C): as above

## COc1cccc2c1c(OC)cc1cc(C)c(=O)oc12
[1]
  inhibition: inactive

## Cc1cc2cc(O)cc(O)c2c(=O)o1
[2]
  Activity: 96%
[3]
  Activity: 93.1%
[4]
  Activity: Non-toxic
[5]
  Activity: Non-toxic

## COc1cccc2c1c(O)cc1cc(C)c(=O)oc12
[6]
  IC50: 500 nM
[7]
  Activity: inactive
[8]
  Activity: inactive
[9]
  Activity: Toxic
[10]
  Activity: Toxic
